{"source": "patent US10800834B2", "about": "“HER-1, HER-3 and IGF-1R compositions and uses thereof” (OHIO STATE INNOVATION FOUNDATION, priority 2013, dated 2020)", "key": {"[1]": {"tested_on": "BxPC-3, MCF-7 and JIMT-1 cancer cells", "test": "MTT proliferation assay with IGF-1R peptide mimics", "assay_type": "cell-based, human", "conditions": "25, 50, 100, 150 μg/ml, three days", "method": "The effects of treatment with the IGF-1R peptide mimics were evaluated as inhibitors on proliferation of human pancreatic (BxPC-3) and breast (MCF-7 and JIMT-1) cancer cells. Ligand binding to the IGF-1 receptor results in activation that causes increase proliferation of the receptor and intracellular signaling. Accordingly, the effects of the IGF-1R peptide mimics on ligand binding inhibition and inhibition of cancer cell line proliferation were determined. To measure proliferation, the MTT assay was used where the cells were treated with the inhibitors at different concentrations and incubated for three days before adding MTT."}, "IGF-1R": {"molecular_target": "T1, IGF-1R (Homo sapiens, UniProt P08069)", "T1 construct": "IGF-1 signaling in MCF-7, JIMT-1 and BxPC-3 cells were analyzed using protein lysates after treatment; endogenous in cells; host or cells: MCF-7, JIMT-1 (human breast cancer) and BxPC-3 (human pancreatic cancer) cells", "test": "Human-phospho-IGF-1R sandwich ELISA", "assay_type": "cell-based", "conditions": "MCF-7, JIMT-1 and BxPC-3 cells", "method": "The effects of chimeric peptides and antipeptide antibodies on IGF-1 signaling in MCF-7, JIMT-1 and BxPC-3 cells were analyzed using protein lysates after treatment and measurement of phosphorylated levels of the receptors in a sandwich ELISA method using Human-phospho-IGF-1R ELISA kit from R&D diagnostics. […] FIG. 22 A-C is treatment with peptide mimics and FIG. 22-D-F is treatment with peptide vaccine antibodies."}, "[2]": {"tested_on": "BxPC-3 pancreatic and JIMT-1 breast cancer cells", "test": "SCID transplantable breast and pancreatic mouse model, IGF-1R peptides", "assay_type": "in vivo", "conditions": "200 μg i.v. weekly for 7 weeks; P values <0.05", "method": "To test the in vivo effects of the chimeric peptides, a transplantable breast and pancreatic mouse model was used. BxPC-3 pancreatic and JIMT-1 breast cancer cells were injected subcutaneously into the flanks of SCID mice. After tumor challenge, the mice were treated intravenously with the IGF-1R peptide mimics starting at day zero (day of tumor challenge) and weekly for a total of 7 weeks. Tumor growth was monitored twice weekly and at the end of treatment, all mice were euthanized and the tumors extracted and weighed and the percentage tumor weight calculated."}, "[3]": {"tested_on": "New Zealand white outbred rabbits", "test": "Immunogenicity of MVF HER-3 peptide constructs in rabbits (ELISA titers)", "assay_type": "in vivo, rabbit", "method": "Two female New Zealand white outbred rabbits (Harlan) were immunized intramuscularly with 1 mg of MVF HER-3 (237-269) or MVF HER-3 (461-479) peptide dissolved in 500 μL PBS and emulsified in 500 μL of Montanide ISA720 vehicle with 100 μg muramyl dipeptide adjuvant, nor-MDP (N-acetylglucosamine-3yl-acetyl-L-alanyl-D-isoglutamine). Subsequent booster injections were given every three weeks after primary immunization. Sera of rabbits immunized with either MVF peptide were collected weekly, and complement was inactivated by heating to 56° C. for 30 minutes. The titer of anti-HER-3 peptide antibodies were quantified by ELISA. The MVF HER-3 (237-269) and MVF HER-3 (461-479) peptides were highly immunogenic by three weeks after the third immunization. Antibody titers against MVF HER-3 (461-479) and MVF HER-3 (237-269) were ≥32,000 and ≥128,000, respectively (FIGS. 9 A & B). High antibody titers were also generated against B cell epitope constructs. HER-3 (461-479) and HER-3 (237-269) antibody titers were ≥16,000 and ≥128,000, respectively (Data not shown). Total IgG was purified from high-titered sera on a protein A/G column (Pierce, Rockford, Ill.) and eluted antibodies were concentrated and exchanged in PBS using 100 kDa cutoff centrifuge filter units (Millipore). Antibody concentrations were determined by Coomassie plus protein assay reagent kit (Pierce)."}, "BXPC3 cells [4]": {"tested_on": "BXPC3 cells", "test": "BALB/c SCID transplantable mouse model, BXPC3, HER-3 peptide mimics", "assay_type": "in vivo", "conditions": "BXPC3, peptide mimics i.v. weekly", "method": "To test the in vivo effects of the peptide mimics, two transplantable mouse models were used. Mice 4-5 weeks old were challenged with either BXPC3 or JIMT-1 cells subcutaneously into the flank. After tumor challenge, mice were treated intravenously with the peptide mimics starting at day zero (day of tumor challenge) and weekly for a total of 8-9 treatments. Tumor growth was monitored twice weekly and at the end of treatment. All mice were euthanized and weighed. Tumors were also extracted and weighed. Results display tumor volume and % tumor weight (FIG. 16 A-D). Both peptide constructs had the ability to attenuate tumor growth in mice challenged with BXPC3 cells. […] As a result, only the HER-3 (461-479) peptide was used in JIMT-1 tumor model."}, "BxPC3 cells [5]": {"tested_on": "BxPC3 cells", "test": "MTT inhibition assay with HER-3 peptide mimics, BxPC3", "assay_type": "cell-based, human", "conditions": "72 hours, HRG stimulated", "method": "The HER-3 peptide mimics and peptide vaccine antibodies may provide anti-tumor activity by blocking dimerization or ligand binding of the HER-3 receptor. To test the ability of the chimeric peptides to elicit antitumor effects, HER-3 positive cells were examined in a MTT inhibition assay. The anti-proliferative effects of the peptide mimics were tested at various concentrations (FIG. 13). Taxol, an inhibitor of mitosis, was used as a positive control (data not shown). Cells were seeded in 96 well flat bottom plates at 1×10^4 cells/well in 100 μl growth media and allowed to adhere overnight at 37° C. Media was removed from the wells and replaced with HER3 peptides made up in 1% growth media. Plates were incubated for 1 hour at 37° C., and subsequently stimulated with either 50 ng/mL HRG. Plates were incubated an additional 72 hours at 37° C. before 25 μL of 5 mg/mL MTT was added to each well. Plates were incubated for 2 hours at 37° C., then 100 μL extraction buffer (20% SDA, 50% DMF, pH 4.7) was added. Plates were incubated overnight at 37° C. and read on an ELISA reader at 570 nm. Percent inhibition was calculated by the following equation: (untreated-treated)/untreated×100. Error bars represent SEM of three separate experiments. […] The HER-3 peptide mimics inhibited proliferation of BXPC3, MCF-7 and JIMT-1 cell lines in a dose-dependent manner. […]"}, "Met-1 cells": {"tested_on": "Met-1 cells", "test": "FVB/n Met-1 transplantable breast tumor model", "assay_type": "in vivo, mouse", "conditions": "peptide mimics i.v. weekly; for tumor growth and development: vs untreated and irrelevant peptide", "method": "Antitumor effects of immunization with HER-1 peptide vaccines and chimeric peptides in Fvb/n breast cancer model The Fvb/n transplantable model of HER-family dependent breast cancer represents a good model for human breast cancer. The peptide vaccines were dissolved in water and emulsified in Montanide ISA 720 (1:1) and […] (N-acetylglucosamine-3yl-acetyl-1-alanyl-D-isoglutamine). Female wild-type FVB/n mice (Charles River Laboratories) at the age of 5 to 6 weeks were immunized three times at 3-week intervals with […], and 14 days after the third immunization, the mice were challenged s.c. with Met-1 cells (200,000 per mouse). Met-1 cells were derived from the PyMT-transgenic mouse model with FVB/n background. Tumor growth was monitored for up to 6 weeks after challenge. During immunization, blood was drawn biweekly and used in ELISA to monitor Ab titers. In the case of treatment with the chimeric peptides, the mice were simply challenged with Met-1 cells and treated weekly i.v. with […] for up to 6 weeks beginning at day 0. The mice were euthanized at the end of treatment and tumors extracted and weighed.\nTumor tissues were formalin fixed, embedded in paraffin, and stained immunohistochemically for CD31 and Ki-67. The tissue blocks were cut into […], deparaffinized in xylol, and then rehydrated with different grades of alcohol. The rehydrated sections were then washed with distilled water and placed in a microwave oven for 15 minutes. The slides were then blocked and incubated for 40 minutes at 20° C. with primary Abs specific for Ki-67 and CD31.\nTo evaluate the inhibitory effects of the peptide vaccines in vivo, the FVB/n transplantable mouse model was used in which Met-1 cells from FVB/n background were injected in the mammary fat pad of wild-type FVB/n mice after immunization with the chimeric MVF HER-1 peptides as shown in the immunization schedule (data not shown). Tumor development in this model is dependent on the HER family receptor overexpression. All mice were immunized at 5 to 6 weeks of age and received two boosters at 3-week intervals. As depicted in FIG. 5, the vaccine constructs were immunogenic in the mice, and all of the mice had relatively high titers of the Abs (greater than 40,000). Mice were challenged with Met-1 cells and monitored weekly for 6 weeks.\nTo test the in vivo effects of the peptide mimics, the same FVB/n model was used as in the case of immunization, but in this experiment, wild-type mice were challenged with Met-1 cells and treated i.v. with the peptide mimics. […] In assessing how the peptide inhibitors exert their effects in vivo, the tumor sections were analyzed after treatment with the peptide mimics for blood vessel density and actively proliferating cells. […] The effect on proliferating cells was most evident in the case of treatment with the 382-410 and the 418-435 constructs (FIG. 7C)."}, "A549 lung cancer cells": {"tested_on": "A549 lung cancer cells", "test": "BALB/c SCID transplantable lung tumor model", "assay_type": "in vivo, mouse", "design": "dose or concentration left out as unconfirmed", "conditions": "i.v. weekly, peptide mimics or cetuximab", "method": "[…] Tumor growth was measured twice weekly using vernier calipers, and at the end of the experiment, the tumors were extracted and weighed."}, "[6]": {"test": "Immunization of transgenic mice with chimeric peptides (summary statement)", "assay_type": "in vivo, mouse", "conditions": "immunization of transgenic mice with one or more of the chimeric peptides"}}, "note": "Entries after “also recorded” stand apart in the source; their conditions may differ.", "data": [{"substance": "ACPPNTYRFEGWRCVDRDF (Ac-ACPPNTYRFEGWRCVDRDF-NH2; cysteine pairing not given here; listed as Homo sapiens) [IGF-1R (234-252), peptide mimic acetylated and amidated]", "values": [{"measurement": "inhibition of proliferation (MTT)", "setting": "[1]", "result": "inhibition of all three cell lines which was dose dependent; also recorded: dose-dependent inhibition of proliferation"}, {"measurement": "phosphorylated IGF-1R, treatment with peptides", "setting": "IGF-1R", "result": "able to downregulate the expression of phosphorylated IGF-1R"}, {"measurement": "percentage tumor weight", "setting": "[2]", "result": "significantly decreased the percentage tumor weight"}]}, {"substance": "ERLDIKHNRPRRDCVAEGK (Ac-ERLDIKHNRPRRDCVAEGK-NH2; listed as Homo sapiens) [HER-3 (461-479), peptide mimic acetylated and amidated]", "values": [{"measurement": "antibody titers against B cell epitope constructs", "setting": "[3]; sera of rabbits immunized with MVF HER-3 peptides, data not shown", "result": "≥ 16,000"}, {"measurement": "% tumor weight", "setting": "BXPC3 cells [4]", "result": "significantly decreased the % tumor weight"}, {"measurement": "tumor growth", "setting": "BXPC3 cells [4]", "result": "greater anti-tumor effects"}]}, {"substance": "FVMLNYNTNSSHALRQLRLTQLTE (Ac-FVMLNYNTNSSHALRQLRLTQLTE-NH2; listed as Homo sapiens) [HER-3 (99-122), peptide mimic acetylated and amidated]", "values": [{"measurement": "Percent inhibition of proliferation", "setting": "BxPC3 cells [5]", "result": "~80", "unit": "%"}]}, {"substance": "KIEFMYPPPYLDNERSNGTI [irrelevant peptide, negative control peptide, reference compound]", "values": [{"measurement": "tumor growth and development", "setting": "Met-1 cells", "result": "no inhibitory effects"}]}, {"substance": "LIQAWPENRTDLHAFENLEIIRGRTKQHG (Ac-LIQAWPENRTDLHAFENLEIIRGRTKQHG-NH2; listed as Homo sapiens) [HER-1 (382-410), peptide mimic acetylated and amidated]", "values": [{"measurement": "delay in tumor onset", "setting": "Met-1 cells", "result": "approximately 2 weeks"}, {"measurement": "microvascular density (CD31) in tumor sections", "setting": "Met-1 cells", "result": "significant reduction in microvascular density"}, {"measurement": "percentage tumor weight", "setting": "Met-1 cells", "result": "greater inhibitory effects"}, {"measurement": "proliferating cells (Ki-67) in tumor sections", "setting": "Met-1 cells", "result": "most evident"}, {"measurement": "tumor growth and development", "setting": "Met-1 cells", "result": "decrease in tumor growth and development"}, {"measurement": "tumor growth and development", "setting": "A549 lung cancer cells", "result": "significantly delayed tumor growth and development"}]}, {"substance": "LLFRVAGLESLGDLFPNLTVIRGWKL (Ac-LLFRVAGLESLGDLFPNLTVIRGWKL-NH2; listed as Homo sapiens) [IGF-1R (56-81), peptide mimic acetylated and amidated]", "values": [{"measurement": "inhibition of proliferation (MTT)", "setting": "[1]", "result": "inhibition of all three cell lines which was dose dependent; also recorded: dose-dependent inhibition of proliferation"}, {"measurement": "phosphorylated IGF-1R, treatment with peptides", "setting": "IGF-1R", "result": "able to downregulate the expression of phosphorylated IGF-1R"}, {"measurement": "percentage tumor weight", "setting": "[2]", "result": "significantly decreased the percentage tumor weight"}]}, {"substance": "MVF HER-3 (461-479): HER-3 (461-479) synthesized collinearly with modified MVF epitope (SEQ ID NO:12) and GPSL linker (KLLSLIKGVIVHRLEGVEGPSLERLDIKHNRPRRDCVAEGK)", "values": [{"measurement": "tumor growth after immunization", "setting": "[6]", "result": "significant delay of tumor growth"}, {"measurement": "Antibody titers against MVF peptide", "setting": "[3]; three weeks after the third immunization", "result": "≥ 32,000"}]}, {"substance": "SLNITSLGLRSLKEISDG (Ac-SLNITSLGLRSLKEISDG-NH2; listed as Homo sapiens) [HER-1 (418-435), peptide mimic acetylated and amidated]", "values": [{"measurement": "delay in tumor onset", "setting": "Met-1 cells", "result": "approximately 2 weeks"}, {"measurement": "microvascular density (CD31) in tumor sections", "setting": "Met-1 cells", "result": "significant reduction in microvascular density"}, {"measurement": "percentage tumor weight", "setting": "Met-1 cells", "result": "greater inhibitory effects"}, {"measurement": "proliferating cells (Ki-67) in tumor sections", "setting": "Met-1 cells", "result": "most evident"}, {"measurement": "tumor growth and development", "setting": "Met-1 cells", "result": "decrease in tumor growth and development"}, {"measurement": "tumor growth and development", "setting": "A549 lung cancer cells", "result": "significantly delayed tumor growth and development"}]}]}
